Assay results as given in patent US20250171459A1, “2-METHYL-4',5'-DIHYDROSPIRO[PIPERIDINE-4,7'-THIENO[2,3-C]PYRAN] DERIVATIVES AS INHIBITORS OF APOL1 AND METHODS OF USING SAME” (Vertex Pharmaceuticals Incorporated, priority 2022, published 2025).

What follows are compounds tested against T1, APOL1 (Homo sapiens, UniProt O14791) (assay: MultiTox-Fluor Multiplex Cytotoxicity Assay in tet-inducible APOL1 T-REx-HEK293 cells (cell rescue, ratio of dead to live cells)). Details: tet-inducible transgenic APOL1 T-REx-HEK293 cell lines, 50 ng/mL tet, 24 hours; read-out: IP50 (i.e., IC50 for cell proliferation).
T1 sequence (O14791 1-398 S342G/I384M): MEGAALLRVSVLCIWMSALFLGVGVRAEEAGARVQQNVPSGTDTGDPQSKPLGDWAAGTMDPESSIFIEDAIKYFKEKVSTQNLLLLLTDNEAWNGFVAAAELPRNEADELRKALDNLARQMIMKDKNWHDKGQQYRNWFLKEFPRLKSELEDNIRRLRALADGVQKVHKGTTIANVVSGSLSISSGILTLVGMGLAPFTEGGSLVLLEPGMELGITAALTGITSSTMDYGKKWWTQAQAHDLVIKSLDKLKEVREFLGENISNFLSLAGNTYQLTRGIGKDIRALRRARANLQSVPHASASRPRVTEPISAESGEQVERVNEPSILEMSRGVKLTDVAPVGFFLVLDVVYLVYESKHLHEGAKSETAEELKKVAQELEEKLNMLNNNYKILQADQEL
Assay type: cell-based
Text: The MultiTox-Fluor Multiplex Cytotoxicity Assay is a single-reagent-addition, homogeneous, fluorescence assay that measures the number of live and dead cells simultaneously in culture wells. The assay measures cell viability and cytotoxicity by detecting two distinct protease activities. […] The substrate enters intact cells, where it is cleaved to generate a fluorescent signal proportional to the number of living cells. […] A ratio of dead to live cells is used to normalize data.
The MultiTox reagent was added to each well and placed back in the incubator for an additional 30 minutes. The plate was read on the EnVision plate reader. A ratio of dead to live cells was used to normalize, and data was imported, analyzed, and fit using Genedata Screener (Basel, Switzerland) software. Data was normalized using percent of control, no tet (100% viability), and 50 ng/mL tet treated (0% viability), and fit using Smart Fit. The reagents, methods, and complete protocol for the MultiTox assay are described below.
Cells were washed with DPBS and then trypsinized to dissociate from the flask. Media was used to quench the trypsin, cells were then pelleted at 200 g and resuspended in fresh cell assay media (DMEM, 2% Tet-free FBS, 2 mM L-glutamine, 100 Units/mL penicillin-streptomycin). […] The plates were then incubated at room temperature for one hour.
Tetracycline is needed to induce APOL1 expression. 1 mg/mL tet stock in water was diluted to 250 ng/mL (5×) in cell assay media.
Compounds were dispensed at 200 nL in DMSO. The final top concentration was 10 μM with a 10 point 3-fold dilution in duplicate in the MultiTox assay.
20 μL was transferred from the 5× tet plate to the ARP and mixed, then 5 μL of 5× tet and the compounds were transferred to the cell plate and mixed using the Bravo. The cell plate was placed in the humidified 37° C. 5% CO2 incubator for 24 hours.
The MultiTox-Fluor Multiplex Cytotoxicity Assay was performed in accordance with the manufacturer's protocol. After cells were incubated with tet and compound for 24 hours, 25 μL of 1× MultiTox reagent was added to each well using the Multidrop dispenser; the plates were placed on a plate shaker (600 rpm) for 2 minutes, then centrifuged briefly and placed back in the 37° C. incubator for 30 minutes. The cell viability (excitation: 400 nm, emission: 486 nm) and cytotoxicity (excitation: 485 nm, emission: 535 nm) were read using the EnVision plate reader. A ratio of dead (cytotoxicity) to live (viability) cells was reported. Data was exported and analyzed in Genedata. Data was normalized using percent of control, no tet (100% viability), and 50 ng/mL tet treated (0% viability), and fit using Smart Fit settings in Genedata.
In the case of `C[C@H]1C[C@@]2(CCN1Cc1cnn(CC(O)C(C)(C)O)c1)OCC(O)(C(F)F)c1cc(Cl)sc12` (stereo in doubt) [Compound 829, 1-[4-[[(2′S,4R,7R)-2-chloro-4-(difluoromethyl)-4-hydroxy-2′-methyl-spiro[5H-thieno[2,3-c]pyran-7,4′-piperidine]-1′-yl]methyl]pyrazol-1-yl]-3-methyl-butane-2,3-diol], the IC50 is reported as < 100 nM.
`C[C@H]1C[C@@]2(CCN1C[C@H](O)C(N)=O)OCCc1cc(C(F)(F)F)sc12` [Compound 867, (2S)-2-hydroxy-3-[(2′S,7R)-2′-methyl-2-(trifluoromethyl)spiro[4,5-dihydrothieno[2,3-c]pyran-7,4′-piperidine]-1′-yl]propanamide] showed an IC50 of 100 to 500 nM.
For `C[C@H]1C[C@@]2(CCN1Cc1cnn(CC(O)C(C)(C)O)c1)OCCc1c2sc(C(F)(F)F)c1CO` (stereo partly drawn) [Compound 960], the IC50 was < 100 nM.
In the case of `COc1cnc(CN2CC[C@]3(C[C@@H]2C)OCCc2c3sc(Cl)c2CO)cn1` [Compound 720], the IC50 is reported as 100 to 500 nM.
For `CCc1cc2c(s1)CCO[C@@]21CCN(Cc2ncco2)[C@@H](C)C1` [Compound 284], the IC50 was 500 to 1000 nM.
Work on `CCc1cc2c(s1)CCO[C@@]21CCN(CC)[C@@H](C)C1` [Compound 289] yielded an IC50 of 100 to 500 nM.
In the case of `CCc1cc2c(s1)CCO[C@@]21CCN(Cc2cn(CCN(CCO)CCO)nn2)[C@@H](C)C1` [Compound 182], the IC50 is reported as 100 to 500 nM.
With `CCc1cc2c(s1)CCO[C@@]21CCN(Cc2cn([C@H]3CCN(S(C)(=O)=O)C3)nn2)[C@@H](C)C1` [Compound 27] the IC50 was < 100 nM.
`C[C@H]1C[C@@]2(CCN1Cc1cn(CC(O)C(C)(C)O)nn1)OC[C@@](O)(C(F)F)c1cc(Cl)sc12` (stereo partly drawn) [Compound 836, 1-[4-[[(2′S,4R,7R)-2-chloro-4-(difluoromethyl)-4-hydroxy-2′-methyl-spiro[5H-thieno[2,3-c]pyran-7,4′-piperidine]-1′-yl]methyl]triazol-1-yl]-3-methyl-butane-2,3-diol] was tested, and the IC50 was < 100 nM.
`CCc1cc2c(s1)CCOC21CCN(Cc2ccc(C(=O)Nc3c[nH]c4ccccc34)nc2)CC1` [Compound 1044] was tested, and the IC50 was < 100 nM.
`CCc1cc2c(s1)CCOC21CCN(Cc2ccc(C(=O)NC3CCCC3=O)nc2)CC1` (stereo not drawn) [Compound 1058] was tested, and the IC50 was 100 to 500 nM.
For `CCc1cc2c(s1)CCOC21CCN(Cc2cn(CC(O)C(C)(C)O)nn2)C(C)C1` (stereo not drawn) [Compound 123], the IC50 was < 100 nM.
`C[C@H]1C[C@@]2(CCN1Cc1cn(CC(C)(CO)CO)nn1)OCCc1cc(CC(F)F)sc12` [Compound 546] was tested, and the IC50 was < 100 nM.
For `C[C@H]1C[C@@]2(CCN1C1CCCC1O)OCCc1cc(CC(F)F)sc12` (stereo partly drawn) [Compound 604], the IC50 was 100 to 500 nM.
In the case of `CCc1cc2c(s1)CCO[C@@]21CCN(CC2CN(C(=O)Cn3cnnn3)C2)[C@@H](C)C1` [Compound 464], the IC50 is reported as < 100 nM.
`CCc1cc2c(s1)CCOC21CCN(Cc2cnn(CCS(C)(=O)=O)c2)CC1` [Compound 1130] showed an IC50 of 100 to 500 nM.
Compound `C[C@H]1C[C@@]2(CCN1Cc1nccn1C)OCCc1cc(CC(F)F)sc12` [Compound 592] has an IC50 of 500 to 1000 nM.
With `CCc1cc2c(s1)CCO[C@@]21CCN(C[C@H]2C[C@@H](NC(=O)Oc3ccc(Cl)cc3)C2)[C@@H](C)C1` [Compound 382] the IC50 was < 100 nM.
Work on `C[C@H]1C[C@@]2(CCN1Cc1cn(CCO)nn1)OCCc1cc(Cl)sc12` [Compound 627] yielded an IC50 of 100 to 500 nM.
In the case of `CCc1cc2c(s1)CCO[C@@]21CCN(CC2CN(C(=O)c3ncc[nH]3)C2)[C@@H](C)C1` [Compound 468], the IC50 is reported as < 100 nM.
`CCc1cc2c(s1)CCOC21CCN(CC2CCN(C(=O)OC(C)(C)C)CC2)CC1` [Compound 1150] showed an IC50 of 500 to 1000 nM.
`CCc1cc2c(s1)CCO[C@@]21CCN(Cc2cn(CCO)nn2)[C@@H](C)C1` [Compound 154] was tested, and the IC50 was < 100 nM.
For `CCc1cc2c(s1)CCO[C@@]21CCN(C[C@H]2C[C@@H](NC(=O)c3ccc4cn[nH]c4c3)C2)[C@@H](C)C1` [Compound 307], the IC50 was < 100 nM.
`CCc1cc2c(s1)CCO[C@@]21CCN(Cc2cn([C@H]3C[C@H](S(C)(=O)=O)C3)nn2)[C@@H](C)C1` [Compound 18] was tested, and the IC50 was < 100 nM.
In the case of `CCc1cc2c(s1)CCOC21CCN(Cc2ccc(C(=O)N3CC(CO)C3)nc2)CC1` [Compound 1050], the IC50 is reported as < 100 nM.
With `C[C@H]1C[C@@]2(CCN1Cc1cnn(CC(=O)NC3CC3)c1)OC[C@@H](O)c1cc(C(F)(F)F)sc12` [Compound 928] the IC50 was < 100 nM.
For `CCc1cc2c(s1)CCO[C@@]21CCN(C[C@H]2C[C@@H](NS(=O)(=O)C(F)(F)F)C2)[C@@H](C)C1` [Compound 411], the IC50 was 100 to 500 nM.
With `CCc1cc2c(s1)CCO[C@@]21CCN(Cc2cn(C3(CO)CCOC3)nn2)[C@@H](C)C1` (stereo partly drawn) [Compound 170] the IC50 was 500 to 1000 nM.
For `CCc1cc2c(s1)CCO[C@@]21CCN(C[C@H]2C[C@@H](NS(=O)(=O)c3cccc(C)c3)C2)[C@@H](C)C1` [Compound 406], the IC50 was < 100 nM.
With `C[C@H]1C[C@@]2(CCN1Cc1cnn(CC(O)C3CCOCC3)c1)OCCc1c2sc(C(F)(F)F)c1CO` (stereo partly drawn) [Compound 959] the IC50 was < 100 nM.
In the case of `C[C@H]1C[C@@]2(CCN1Cc1cnn(CC(C)(O)C(F)F)c1)OCCc1c2sc(C(F)(F)F)c1CO` (stereo partly drawn) [Compound 953], the IC50 is reported as < 100 nM.
With `CCc1cc2c(s1)CCO[C@@]21CCN(C[C@H]2C[C@@H](NC(=O)c3cnc(C)nc3)C2)[C@@H](C)C1` [Compound 329] the IC50 was 100 to 500 nM.
With `CCc1cc2c(s1)CCOC21CCN(Cc2cn(C3CC(O)C3(C)C)nn2)CC1` (stereo not drawn) [Compound 1094] the IC50 was 500 to 1000 nM.
`CCc1cc2c(s1)CCOC21CCN(Cc2ccc(C(=O)NCC(C)O)nc2)CC1` (stereo not drawn) [Compound 1061] showed an IC50 of 100 to 500 nM.
With `CCc1cc2c(s1)CCOC21CCN(Cc2ccc(N(C)S(C)(=O)=O)nc2)CC1` [Compound 1071] the IC50 was 100 to 500 nM.
In the case of `C[C@H]1C[C@@]2(CCN1Cc1cn(CCS(C)(=O)=O)nn1)OCCc1cc(C(F)(F)F)sc12` [Compound 870, (2′S, 7R)-2′-methyl-1′-[[1-(2-methylsulfonylethyl)triazol-4-yl]methyl]-2-(trifluoromethyl)spiro[4,5-dihydrothieno[2,3-c]pyran-7,4′-piperidine]], the IC50 is reported as < 100 nM.
In the case of `CCc1cc2c(s1)CCO[C@@]21CCN(Cc2cnn(CCS(C)(=O)=O)c2)[C@H](C)C1` [Compound 272], the IC50 is reported as 100 to 500 nM.
`CCc1cc2c(s1)CCOC21CCN(Cc2cn(CCS(N)(=O)=O)nn2)CC1` [Compound 1080] gave an IC50 of 100 to 500 nM.
With `CCc1cc2c(s1)CCOC21CCN(Cc2cn(CC(O)CS(C)(=O)=O)nn2)C(C)C1` (stereo not drawn) [Compound 91] the IC50 was < 100 nM.
For `C[C@H]1C[C@@]2(CCN1Cc1cccc(OCCO)c1)OCCc1c2sc(Cl)c1CO` [Compound 725], the IC50 was 100 to 500 nM.
`C#CCN1CC[C@]2(C[C@@H]1C)OCCc1cc(Cl)sc12` [Compound 625, (2′S, 7R)-2-chloro-2′-methyl-1′-prop-2-ynyl-spiro[4,5-dihydrothieno[2,3-c]pyran-7,4′-piperidine]] was tested, and the IC50 was 500 to 1000 nM.
With `CCc1cc2c(s1)CCO[C@@]21CCN(C[C@H]2C[C@@H](NS(=O)(=O)c3ccc4[nH]c(=O)[nH]c4c3)C2)[C@@H](C)C1` [Compound 416] the IC50 was 100 to 500 nM.
`CCc1cc2c(s1)CCO[C@@]21CCN(C[C@H]2C[C@@H](NC(=O)OCC3CC3)C2)[C@@H](C)C1` [Compound 378] showed an IC50 of 100 to 500 nM.
`C[C@H]1C[C@@]2(CCN1Cc1ccnn1C)OCCc1cc(CC(F)F)sc12` [Compound 571] gave an IC50 of 100 to 500 nM.
With `CCc1cc2c(s1)CCO[C@@]21CCN(Cc2cn(C3C[C@H](CO)NC3=O)nn2)[C@@H](C)C1` (stereo partly drawn) [Compound 196] the IC50 was 100 to 500 nM.
`CC(C)CN1CC[C@]2(C[C@@H]1C)OCCc1cc(CC(F)F)sc12` [Compound 581] showed an IC50 of 100 to 500 nM.
In the case of `CCc1sc2c(c1Br)[C@]1(CCN(Cc3cn(CCS(C)(=O)=O)nn3)[C@@H](C)C1)OCC2` [Compound 526, (2′S,4R)-3-bromo-2-ethyl-2′-methyl-1′-[[1-(2-methylsulfonylethyl)triazol-4-yl]methyl]spiro[6,7-dihydrothieno[3,2-c]pyran-4,4′-piperidine]], the IC50 is reported as 100 to 500 nM.
For `CCc1cc2c(s1)CCO[C@@]21CCN(Cc2cn([C@H]3CCN(C(=O)OC(C)(C)C)C3)nn2)[C@@H](C)C1` [Compound 17], the IC50 was < 100 nM.
